Experiments:
[1] = target: T1, PDGFRb (Homo sapiens, UniProt P09619); test: Inhibition of PDGFRb kinase in an in vitro biochemical assay (alphascreen); settings: tested at about 1 μM; read-out: PDGFR % inhibition at 1 μM
T1 construct: The kinase domain of PDGFRβ was assayed in 50 mM Hepes; purchased Invitrogen P3082
Procedure: (§1) The IC50 values for the inhibition of RTKs were determined in the alphascreen format measuring the inhibition by compound of phosphate transfer to a substrate by the respective enzyme. Briefly, the respective RTK domain purchased as human recombinant protein (cKIT Upstate #14-559, PDGFRb Invitrogen #P3082) were incubated with serial dilutions of compound in the presence of substrate and ATP concentrations within 3 times the Km of the enzyme.
(§2) The kinase domain of cKIT was assayed in 50 mM Hepes, pH=7.5, 5 mM MgCl2, 10 mM MnCl2, 1 mM DTT, 0.1% BSA with 0.06 uM biotinylated peptide substrate (GGLFDDPSYVNVQNL-NH2) and 15 μM ATP (ATP KM apparent =15 μM). The kinase domain of PDGFRβ was assayed in 50 mM Hepes, pH=7.5, 20 mM MgCl2, 1 mM DTT, 0.1% BSA with 0.1 μM biotinylated peptide substrate (GGLFDDPSYVNVQNL-NH2) and 10 μM ATP (ATP KM apparent=25 μM). Reactions were incubated at room temperature for 3 to 4 hr and stopped with buffer (20 mM EDTA, 0.01% Tween-20 for both PDGFRβ and cKIT). Alphascreen PY20 beads were added to the stopped cKIT reactions and PY20 Ab/Protein A Alphascreen beads were added to the PDGFRβ stopped reactions. Both reactions were incubated overnight and read on the Alphascreen reader. The concentration of compound for 50% inhibition (IC50) was calculated employing non-linear regression using XL-Fit data analysis software. As a control compound, staurosporine is run in every assay and a Z′>0.5 is required to validate results.

[2] = target: T2, cytoplasmic domain of the human CSF-1R (Homo sapiens, UniProt P07333); test: In vitro kinase assay for CSF-1R (AlphaScreen); assay type: biochemical; settings: tested at about 1 μM
T2 construct: Recombinant protein corresponding to the cytoplasmic domain of the human CSF-1R; purchased Invitrogen Corporation, Carlsbad, Calif; U.S.A. PV3249
T2 sequence (P07333 539-972 limits assumed): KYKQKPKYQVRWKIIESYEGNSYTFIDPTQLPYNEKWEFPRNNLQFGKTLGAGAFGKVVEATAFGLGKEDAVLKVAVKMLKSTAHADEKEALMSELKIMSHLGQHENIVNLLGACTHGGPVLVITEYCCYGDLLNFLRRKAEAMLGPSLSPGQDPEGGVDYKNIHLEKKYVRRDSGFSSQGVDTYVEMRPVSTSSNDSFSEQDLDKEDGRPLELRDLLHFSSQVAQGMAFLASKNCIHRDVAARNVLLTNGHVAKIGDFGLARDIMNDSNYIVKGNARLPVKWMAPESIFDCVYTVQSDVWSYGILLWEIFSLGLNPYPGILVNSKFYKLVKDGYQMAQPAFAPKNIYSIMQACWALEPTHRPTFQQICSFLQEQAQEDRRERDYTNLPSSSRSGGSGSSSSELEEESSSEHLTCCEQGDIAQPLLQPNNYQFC
Procedure: The kinase activity of various protein tyrosine kinases can be measured by providing ATP and a suitable peptide or protein tyrosine-containing substrate, and assaying the transfer of phosphate moiety to the tyrosine residue. Recombinant protein corresponding to the cytoplasmic domain of the human CSF-1R was purchased from Invitrogen Corporation, Carlsbad, Calif. U.S.A. (#PV3249). For each assay, test compounds were serially diluted, starting at 25 μM with 3 fold dilutions, in DMSO in 384 well plates then mixed with an appropriate kinase reaction buffer consisting of 50 mM Hepes, 5 mM MgCl2, 10 mM MnCl2, 0.1% BSA, pH 7.5, 1.0 mM dithiothreitol, 0.01% Tween 80 plus […]. Kinase protein and an appropriate biotinylated peptide substrate at 50 nM were added to give a final volume of 20 μL, reactions were incubated for 2 hours at room temperature and stopped by the addition of 10 μL of 45 mM EDTA, 50 mM Hepes pH 7.5. Added to the stopped reaction mix was 30 μL of PT66 Alphascreen beads (Perkin Elmer, Boston, Mass., U.S.A.). The reaction was incubated overnight and read on the Envision (Perkin Elmer). Phosphorylated peptide product was measured with the AlphaScreen system (Perkin Elmer) using acceptor beads coated with anti-phosphotyrosine antibody PT66 and donor beads coated with streptavidin that emit a fluorescent signal at the 520-620 nm emission wave length if in close proximity. The concentration of each compound for 50% inhibition (IC50) was calculated by non-linear regression using XL Fit data analysis software.
CSF-1R kinase was assayed in 50 mM Hepes pH 7.0, 5 mM MgCl2, 10 mM MnCl2, 1 mM DTT, 1 mg/mL BSA, 1.0 μM ATP, and 0.05 μM biotin-GGGGRPRAATF-NH2 (SEQ ID NO:2) peptide substrate. CSF-1R kinase was added at final concentration of 4 nM.

[3] = target: T3, cKIT (Homo sapiens, UniProt P10721); test: Inhibition of cKIT kinase in an in vitro biochemical assay (alphascreen); settings: tested at about 1 μM
T3 construct: The kinase domain of cKIT was assayed in 50 mM Hepes; purchased Upstate 14-559
Procedure: as §1, §2

T3 sequence (P10721 589-937 limits assumed): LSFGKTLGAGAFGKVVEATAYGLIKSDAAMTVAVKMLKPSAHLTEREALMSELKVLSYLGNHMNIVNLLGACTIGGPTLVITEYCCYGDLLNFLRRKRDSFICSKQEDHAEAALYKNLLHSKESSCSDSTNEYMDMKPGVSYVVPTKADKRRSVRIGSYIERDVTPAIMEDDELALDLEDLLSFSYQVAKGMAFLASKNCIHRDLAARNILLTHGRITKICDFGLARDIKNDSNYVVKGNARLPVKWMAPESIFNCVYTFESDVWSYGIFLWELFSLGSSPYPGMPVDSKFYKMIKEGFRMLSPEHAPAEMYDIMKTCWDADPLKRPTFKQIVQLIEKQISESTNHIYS
T1 sequence (P09619 600-962 limits assumed): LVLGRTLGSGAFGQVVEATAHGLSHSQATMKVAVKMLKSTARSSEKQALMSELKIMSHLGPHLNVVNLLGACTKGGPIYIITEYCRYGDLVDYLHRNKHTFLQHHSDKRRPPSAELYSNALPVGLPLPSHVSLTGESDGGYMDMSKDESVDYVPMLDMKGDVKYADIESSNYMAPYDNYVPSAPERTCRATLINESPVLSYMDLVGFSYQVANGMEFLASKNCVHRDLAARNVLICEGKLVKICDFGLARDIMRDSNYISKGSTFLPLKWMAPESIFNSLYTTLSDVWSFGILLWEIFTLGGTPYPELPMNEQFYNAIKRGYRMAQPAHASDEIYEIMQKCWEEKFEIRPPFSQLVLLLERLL

Row | SMILES | inhibition at 1 µM [1] | inhibition at 1 µM [2] | inhibition at 1 µM [3]
1 | CNC(=O)c1cc(Oc2ccc3nc(Nc4ccccc4OCCOC)ncc3c2)ccn1 [Example 69, 4-(2-(2-(2-methoxyethoxy)phenylamino)quinazolin-6-yloxy)-N-methylpicolinamide] | 5% | 99% | 17%
2 | CNC(=O)c1cc(Oc2ccc3nc(Nc4ccccc4OCCO)ncc3c2)ccn1 [Example 70, 4-(2-(2-(2-hydroxyethoxy)phenylamino)quinazolin-6-yloxy)-N-methylpicolinamide] | 13% | 95% | 11%
3 | CNC(=O)c1cc(Oc2ccc3nc(Nc4ccccc4OCCCO)ncc3c2)ccn1 [Example 71, 4-(2-(2-(3-hydroxypropoxy)phenylamino)quinazolin-6-yloxy)-N-methylpicolinamide] | 11% | 90% | < 1%
4 | CNC(=O)c1cc(Oc2ccc3nc(NC(=O)c4ccccc4)ncc3c2)ccn1 [Example 72, 4-(2-benzamidoquinazolin-6-yloxy)-N-methylpicolinamide] | 43% | 98% | 13%
5 | CNC(=O)c1cc(Oc2ccc3nc(N[C@@H]4CCCC[C@H]4N)ncc3c2)ccn1 [Example 73, 4-(2-((1R,2R)-2-aminocyclohexylamino)quinazolin-6-yloxy)-N-methylpicolinamide] | 19% | 62% | 8%
6 | CNC(=O)c1cc(Oc2ccc3nc(NC4CCCCC4)ncc3c2)ccn1 [Example 74, 4-(2-(cyclohexylamino)quinazolin-6-yloxy)-N-methylpicolinamide] | < 1% | 100% | 18%
7 | OC(c1ccncc1)c1ccc2nc(NCC3CCCCC3)sc2c1 (stereo not drawn) [Example 76, (2-(cyclohexylmethylamino)benzo [d]thiazol-6-yl)(pyridin-4-yl)methanol] | 27% | 65% | 49%
8 | c1cc(Cc2ccc3nc(NCC4CCCCC4)sc3c2)ccn1 [Example 77, N-(cyclohexylmethyl)-6-(pyridin-4-ylmethyl)benzo[d]thiazol-2-amine] | 16% | 74% | 10%
9 | CNC(=O)c1cc(Sc2ccc3nc(NCC4CCCCC4)sc3c2)ccn1 [Example 78, 4-(2-(cyclohexylmethylamino)benzo [d]thiazol-6-ylthio)-N-methylpicolinamide] | 34% | 100% | 13%
10 | CNC(=O)c1cc(Nc2ccc3nc(N[C@@H]4CCCC[C@H]4O)sc3c2)ccn1 [Example 79, 4-(2-((1R,2R)-2-hydroxycyclohexylamino)benzo[d]thiazol-6-ylamino)-N-methylpicolinamide] | < 1% | 97% | 13%
11 | CNC(=O)c1cc(Oc2ccc3sc(N[C@@H]4CCCC[C@H]4O)nc3c2)ccn1 [Example 81, 4-(2-((1R,2R)-2-hydroxycyclohexylamino)benzo[d]thiazol-5-yloxy)-N-methylpicolinamide] | 71% | 99% | 39%
12 | CNC(=O)c1cc(Oc2ccc3nc(N[C@@H]4CCCC[C@H]4O)[nH]c3c2)ccn1 [Example 82, 4-(2-((1R,2R)-2-hydroxycyclohexylamino)-1H-benzo[d]imidazol-6-yloxy)-N-methylpicolinamide] | 30% | 99% | 30%
13 | CNC(=O)c1cc(Oc2ccc3nc(N[C@H](C)C4CCCCC4)[nH]c3c2)ccn1 [Example 83, (R)-4-(2-(1-cyclohexylethylamino)-1H-benzo[d]imidazol-6-yloxy)-N-methylpicolinamide] | 100% | 100% | 100%
